The record followed here is patent publication US6911542B2, “Pyrazino[1′,2′:1,6]pyrido[3,4b]indole derivatives” (Lilly Icos LLC., priority 2000, dated 2005).

In series [1] the target is T1, human recombinant PDE5 (Homo sapiens, UniProt O76074).
T1 construct: host or cells: Saccharomyces cerevisiae, protease-deficient strain BJ2-54 (ATCC 74465)
Kind of series: cGMP-PDE one-step inhibition assay, human recombinant PDE5. Format: biochemical. To be noted: 0.15 μM 8-[H3]-cGMP, 30 min incubation. The protocol:
The compounds of structural formula (I) were tested for an ability to inhibit PDE5. The ability of a compound to inhibit PDE5 activity is related to the IC50 value for the compound, i.e., the concentration of inhibitor required for 50% inhibition of enzyme activity. The IC50 value for compounds of structural formula (I) were determined using recombinant human PDE5.
The production of recombinant human PDEs and the IC50 determinations can be accomplished by well-known methods in the art. Exemplary methods are described as follows:
Recombinant production of human PDE1B, PDE2, PDE4A, PDE4B, PDE4C, PDE4D, PDE5, and PDE7 was carried out similarly to that described in Example 7 of U.S. Pat. No. 5,702,936, incorporated herein by reference, except that the yeast transformation vector employed, which is derived from the basic ADH2 plasmid described in Price et al., Methods in Enzymology, 185, pp. 308-318 (1990), incorporated yeast ADH2 promoter and terminator sequences and the Saccharomyces cerevisiae host was the protease-deficient strain BJ2-54 deposited on Aug. 31, 1998 with the American Type Culture Collection, Manassas, Va., under accession number ATCC 74465. Transformed host cells were grown in 2×SC-leu medium, pH 6.2, with trace metals, and vitamins. After 24 hours, YEP medium-containing glycerol was added to a final concentration of 2×YET/3% glycerol. Approximately 24 hr later, cells were harvested, washed, and stored at −70° C. […]
Cell pellets (29 g) were thawed on ice with an equal volume of Lysis Buffer (25 mM Tris HCl, pH 8, 5 mM MgCl2, 0.25 mM DTT, 1 mM benzamidine, and 10 μM ZnSO4). Cells were lysed in a Microfluidizer® (Microfluidics Corp.) using nitrogen at 20,000 psi. The lysate was centrifuged and filtered through 0.45 μm disposable filters. The filtrate was applied to a 150 mL column of Q SEPHAROSE® Fast-Flow (Pharmacia). The column was washed with 1.5 volumes of Buffer A (20 mM Bis-Tris Propane, pH 6.8, 1 mM MgCl2, 0.25 mM DTT, 10 μM ZnSO4) and eluted with a step gradient of 125 mM NaCl in Buffer A followed by a linear gradient of 125-1000 mM NaCl in Buffer A. Active fractions from the linear gradient were applied to a 180 mL hydroxyapatite column in Buffer B (20 mM Bis-Tris Propane (pH 6.8), 1 mM MgCl2, 0.25 mM DTT, 10 μM ZnSO4, and 250 mM KCl). After loading, the column was washed with 2 volumes of Buffer B and eluted with a linear gradient of 0-125 mM potassium phosphate in Buffer B. Active fractions were pooled, precipitated with 60% ammonium sulfate, and resuspended in Buffer C (20 mM Bis-Tris Propane, pH 6.8, 125 mM NaCl, 0.5 mM DTT, and 10 μM ZnSO4). The pool was applied to a 140 mL column of […]® S-300 HR and eluted with Buffer C. Active fractions were diluted to 50% glycerol and stored at −20° C.
(§1) cGMP-PDE activity of compounds of the present invention was measured using a one-step assay adapted from Wells et al., Biochim. Biophys. Acta, 384, 430 (1975). The reaction medium contained 50 mM Tris-HCl, pH 7.5, 5 mM magnesium acetate, 250 μg/ml 5′-Nucleotidase, 1 mM EGTA, and 0.15 μM 8-[H^3]-cGMP. Unless otherwise indicated, the enzyme used was a human recombinant PDE5 (ICOS Corp., Bothell, Wash.).
(§2) Compounds of the invention were dissolved in DMSO finally present at 2% in the assay.

The target of series [2] is T2, PDE5 obtained from bovine aorta (Bos taurus, UniProt Q28156).
T2 construct: from tissue; host or cells: bovine aorta
Kind of series: cGMP-PDE inhibition assay using PDE5 obtained from bovine aorta. Type of series: biochemical. To be noted: read-out: PDE5 IC50 (Bov. aorta). As for the experimental part: as §1, §2

Molecules are shown by their SMILES. pIC50: −log10 of the molar value.

As a reminder, the pIC50 is −log10 of the IC50, conventionally taken in molar units. Usually melting point stands for the temperature, or range, at which the solid turns liquid. In the case of `O=C1[C@H]2Cc3c([nH]c4ccccc34)[C@@H](c3ccc4c(c3)OCO4)N2C(=O)CN1O` [Example 2, (6R,12aR)-6-Benzo[1,3]dioxo-5-yl-2-hydroxy-2,3,6,7,12,12a-hexahydropyrazino[1′,2′:1,6]-pyrido[3,4-b]indole-1,4-dione], the melting point was 276 to 283 °C (dec.). Besides, in series [1], the negative logarithm of the IC50 (pIC50) is 8.12.

As for `COc1ccc([C@@H]2c3[nH]c4ccccc4c3C[C@@H]3C(=O)N(CCN(C)C)CC(=O)N23)cc1` [Example 9], the negative logarithm of the IC50 (pIC50) in series [2] is 7.15. For the compound `O=C1[C@H]2Cc3c([nH]c4ccccc34)[C@@H](c3ccc4c(c3)OCO4)N2C(=O)CN1CCO` [Example 10], in series [2], the pIC50 is 8.30. Consider `COc1ccc([C@@H]2c3[nH]c4ccccc4c3C[C@@H]3C(=O)N(CCCN(C)C)CC(=O)N23)cc1` [Example 11], for which, in series [2], the pIC50 is 6.19. Still for that read-out and setting: the same measure for `COc1ccc([C@@H]2c3[nH]c4ccccc4c3C[C@@H]3C(=O)N(CCCN4CCN(C)CC4)CC(=O)N23)cc1` [Example 12]: 7.00; for `COC(=O)CN1CC(=O)N2[C@H](c3ccc4c(c3)OCO4)c3[nH]c4ccccc4c3C[C@@H]2C1=O` [Example 19]: 8.40. Same read-out and setting: the same measure for `NC(=O)CN1CC(=O)N2[C@H](c3ccc4c(c3)OCO4)c3[nH]c4ccccc4c3C[C@@H]2C1=O` [Example 20]: 8.00. Consider `O=C(CN1CC(=O)N2[C@H](c3ccc4c(c3)OCO4)c3[nH]c4ccccc4c3C[C@@H]2C1=O)N1CCN(c2ccccc2)CC1` [Example 42], for which the pIC50 in series [1] is 6.85. Still for that read-out and setting: to `CN(C(=O)CN1CC(=O)N2[C@H](c3ccc4c(c3)OCO4)c3[nH]c4ccccc4c3C[C@@H]2C1=O)c1ccccc1` [Example 43] belongs 7.00; to `CN1CCN(CCN2CC(=O)N3[C@H](c4ccc5c(c4)OCO5)c4[nH]c5ccccc5c4C[C@@H]3C2=O)CC1` [Example 46], 7.30; to `O=C(O)c1ccc(CN2CC(=O)N3[C@H](c4ccc5c(c4)OCO5)c4[nH]c5ccccc5c4C[C@@H]3C2=O)cc1` [Example 47], 8.37. Same read-out and setting: the same measure for `O=C1[C@H]2Cc3c([nH]c4ccccc34)[C@@H](c3ccc4c(c3)OCO4)N2C(=O)CN1Cc1ccc(NS(=O)(=O)C(F)(F)F)cc1` [Example 57]: 8.29; for `NS(=O)(=O)c1ccc(CN2CC(=O)N3[C@H](c4ccc5c(c4)OCO5)c4[nH]c5ccccc5c4C[C@@H]3C2=O)cc1` [Example 58]: 7.70. The same measure, in the same setting: the same measure for `N#Cc1ccc(CN2CC(=O)N3[C@H](c4ccc5c(c4)OCO5)c4[nH]c5ccccc5c4C[C@@H]3C2=O)cc1` [Example 59]: 7.15. Take `N#CCN1CC(=O)N2[C@H](c3ccc4c(c3)OCO4)c3[nH]c4ccccc4c3C[C@@H]2C1=O` [Example 60]: in series [1], the pIC50 is 8.00. Consider `COC(=O)c1ccc(CN2CC(=O)N3[C@H](c4ccc5c(c4)OCO5)c4[nH]c5ccccc5c4C[C@@H]3C2=O)cc1` [Example 62], for which, in series [1], the pIC50 was 7.70. Same read-out and setting: the same measure for `O=C1[C@H]2Cc3c([nH]c4ccccc34)[C@@H](c3ccc4c(c3)OCO4)N2C(=O)CN1CCc1cnc[nH]1` [Example 64]: 7.70; for `Nc1ccc(CCN2CC(=O)N3[C@H](c4ccc5c(c4)OCO5)c4[nH]c5ccccc5c4C[C@@H]3C2=O)cc1` [Example 66]: 7.40. The same measure, in the same setting: the same measure for `NS(=O)(=O)c1ccc(CCN2CC(=O)N3[C@H](c4ccc5c(c4)OCO5)c4[nH]c5ccccc5c4C[C@@H]3C2=O)cc1` [Example 67]: 8.21; for `O=C(CN1CC(=O)N2[C@H](c3ccc4c(c3)OCO4)c3[nH]c4ccccc4c3C[C@@H]2C1=O)OCc1ccccc1` [Example 68]: 7.40.

As for `O=C(O)CN1CC(=O)N2[C@H](c3ccc4c(c3)OCO4)c3[nH]c4ccccc4c3C[C@@H]2C1=O` [Example 69], the pIC50 in series [1] is 7.70. The same measure, in the same setting: to `CC(C)(C)OC(=O)CCN1CC(=O)N2[C@H](c3ccc4c(c3)OCO4)c3[nH]c4ccccc4c3C[C@@H]2C1=O` [Example 71] belongs 8.00; to `O=C(O)CCN1CC(=O)N2[C@H](c3ccc4c(c3)OCO4)c3[nH]c4ccccc4c3C[C@@H]2C1=O` [Example 72], 8.64; to `O=C1[C@H]2Cc3c([nH]c4ccccc34)[C@@H](c3ccc4c(c3)OCO4)N2C(=O)CN1Cc1cccc(NS(=O)(=O)C(F)(F)F)c1` [Example 77], 8.77. Consider `O=C1[C@H]2Cc3c([nH]c4ccccc34)[C@@H](c3ccc4c(c3)OCO4)N2C(=O)CN1CCCn1cccn1` [Example 79], for which the pIC50 in series [1] was 8.20. Turning to `CN(C)CCOc1ccc(CN2CC(=O)N3[C@H](c4ccc5c(c4)OCO5)c4[nH]c5ccccc5c4C[C@@H]3C2=O)cc1` [Example 81], the pIC50 in series [1] was 6.54. On the same count and under the same terms, the same measure for `O=C1C2Cc3c([nH]c4ccccc34)C(c3ccc4c(c3)OCO4)N2C(=O)CN1CCn1cncn1` (stereo not shown) [Example 82]: 7.52.

For the compound `CNc1cc(CN2CC(=O)N3[C@H](c4ccc5c(c4)OCO5)c4[nH]c5ccccc5c4C[C@@H]3C2=O)cc([N+](=O)[O-])c1` [Example 83], the pIC50 in series [1] was 7.40. For the compound `CN1CCN(NC(=O)CN2CC(=O)N3[C@H](c4ccc5c(c4)OCO5)c4[nH]c5ccccc5c4C[C@@H]3C2=O)CC1` [Example 84], the pIC50 in series [1] is 6.92. The same measure, in the same setting: the same measure for `Cn1cnc2cc(CN3CC(=O)N4[C@H](c5ccc6c(c5)OCO6)c5[nH]c6ccccc6c5C[C@@H]4C3=O)ccc21` [Example 85]: 7.70; for `CC(C)(C)OC(=O)CN1CC(=O)N2[C@H](c3ccc4c(c3)OCO4)c3[nH]c4ccccc4c3C[C@@H]2C1=O` [Example 86]: 7.15. Same read-out and setting: the same measure for `COC(=O)CN1CC(=O)N2[C@H](c3ccc4c(c3)OCO4)c3[nH]c4ccccc4c3C[C@@H]2C1=O` [Example 87]: 7.70; for `CCCCCCCCOC(=O)CN1CC(=O)N2[C@H](c3ccc4c(c3)OCO4)c3[nH]c4ccccc4c3C[C@@H]2C1=O` [Example 88]: 6.96.
